In patent US4255431A, “Gastric acid secretion inhibiting substituted 2-(2-benzimidazolyl)-pyridines, pharmaceutical preparations containing same, and method for inhibiting gastric acid secretion” (priority 1978, dated 1981):

System: gastric acid secretion
Test: Inhibition of pentagastrin-stimulated gastric acid secretion in conscious gastric fistula dogs (intraduodenal administration)
Format: in vivo
Details: Canis lupus familiaris, read-out: Effect, % inhibition (peak inhibitory effect on gastric acid secretion); for inhibition in vivo at 4 µmol/kg: dose 4 μmol/kg; for inhibition in vivo at 20 µmol/kg: dose 20 μmol/kg; for inhibition in vivo at 2 µmol/kg: dose 2 μmol/kg; for inhibition in vivo at 0.5 µmol/kg: dose 0.5 μmol/kg
Protocol: To determine the gastric acid secretion inhibitory properties, experiments have been performed on conscious dogs provided with gastric fistulas of conventional type and duodenal fistulas, the latter ones used for direct intraduodenal administration of the test compounds. After 18 hours starvation and deprivation of water the dogs were given a subcutaneous infusion of pentagastrin (1-4 nmol/kg, h) lasting for 6-7 hours. Gastric juice was collected in consecutive 30 minutes samples. An aliquot of each sample was titrated with 0.1 N NaOH to pH 7.0 for titrable acid concentration using an automatic titrator and pH-meter (Radiometer, Copenhagen, Denmark). Acid output was calculated as mmol H^+ /60 minutes. The percent inhibition compared to control experiments was calculated for each compound and the peak inhibitory effect is given in Table 2 below. […] In the test prior known compounds were compared with the compounds of the present invention as will be evident from the Table 2 below. The following gastric acid inhibiting effect data were obtained for a number of compounds tested according to the method described.

Cc1ccc(C[S+]([O-])c2nc3c(C)cc(C)cc3[nH]2)nc1 (stereo not shown) [* 4-CH3,6-CH3, H, H, H, CH3, reference compound]
inhibition in vivo at 12 µmol/kg (dose 12 μmol/kg): 50%

Cc1ccc(C[S+]([O-])c2nc3cc(C)ccc3[nH]2)nc1 (stereo not shown) [* 5-CH3, H, H, H, H, CH3, reference compound]
inhibition in vivo at 4 µmol/kg: 50%

CC(=O)c1cc2nc([S+]([O-])Cc3cc(C)ccn3)[nH]c2cc1C (stereo not shown) [* 5-COCH3,6-CH3, H, H, CH3, H, reference compound]
inhibition in vivo at 20 µmol/kg: 30%

CC(=O)c1cc2nc([S+]([O-])Cc3ccc(C)cn3)[nH]c2cc1C (stereo not shown) [* 5-COCH3,6-CH3, H, H, H, CH3, reference compound]
inhibition in vivo at 8 µmol/kg (dose 8 μmol/kg): 80%

CCc1ccc(C[S+]([O-])c2nc3cc(C(C)=O)ccc3[nH]2)nc1 (stereo not shown) [* 5-COCH3, H, H, H, H, C2 H5, reference compound]
inhibition in vivo at 20 µmol/kg: 40%

COC(=O)c1cc2nc([S+]([O-])Cc3ncccc3Br)[nH]c2cc1C (stereo not shown) [* 5-COOCH3,6-CH3, H, Br, H, H, reference compound]
inhibition in vivo at 4 µmol/kg: 0%

COC(=O)c1cc2nc([S+]([O-])Cc3ccc(C)cn3)[nH]c2cc1C (stereo not shown) [* 5-COOCH3,6-CH3, H, H, H, CH3, reference compound]
inhibition in vivo at 4 µmol/kg: 50%

COC(=O)c1ccc2[nH]c([S+]([O-])Cc3ccc(C)cn3)nc2c1 (stereo not shown) [* 5-COOCH3, H, H, H, H, CH3, reference compound]
inhibition in vivo at 20 µmol/kg: 90%

COC(=O)c1ccc2[nH]c([S+]([O-])Cc3ccccn3)nc2c1 (stereo not shown) [* 5-COOCH3, H, H, H, H, H, reference compound]
inhibition in vivo at 20 µmol/kg: 50%

COc1ccc2[nH]c([S+]([O-])Cc3cc(C)ccn3)nc2c1 (stereo not shown) [* 5-OCH3, H, H, H, CH3, H, reference compound]
inhibition in vivo at 20 µmol/kg: 10%

CC(=O)c1cc2nc([S+]([O-])Cc3cc(C)c(C)cn3)[nH]c2cc1C (stereo not shown) [Example 1, 2-[2-(4,5-di-methyl)pyridylmethylsulfinyl]-(5-acetyl-6-methyl)benzimidazole]
inhibition in vivo at 2 µmol/kg: 90%

COC(=O)c1cc2nc([S+]([O-])Cc3cc(C)c(C)cn3)[nH]c2cc1C (stereo not shown) [Example 2]
inhibition in vivo at 2 µmol/kg: 60%

COC(=O)c1ccc2[nH]c([S+]([O-])Cc3cc(C)c(C)cn3)nc2c1 (stereo not shown) [Example 3]
inhibition in vivo at 4 µmol/kg: 100%

CC(=O)c1cc2nc([S+]([O-])Cc3nccc(C)c3C)[nH]c2cc1C (stereo not shown) [Example 4]
inhibition in vivo at 1 µmol/kg (dose 1 μmol/kg): 60%

COC(=O)c1cc2nc([S+]([O-])Cc3nccc(C)c3C)[nH]c2cc1C (stereo not shown) [Example 5]
inhibition in vivo at 2 µmol/kg: 90%

Cc1cnc(C[S+]([O-])c2nc3c(C)cc(C)cc3[nH]2)c(C)c1 (stereo not shown) [Example 6]
inhibition in vivo at 4 µmol/kg: 40%

CC(=O)c1cc2nc([S+]([O-])Cc3ncc(C)cc3C)[nH]c2cc1C (stereo not shown) [Example 7, 2-[2-(3,5-dimethyl)pyridylmethylsulfinyl]-(5-acetyl-6-methyl)benzimidazole]
inhibition in vivo at 2 µmol/kg: 100%

CC(=O)c1cc2nc([S+]([O-])Cc3ncc(C)c(C)c3C)[nH]c2cc1C (stereo not shown) [Example 8]
inhibition in vivo at 4 µmol/kg: 100%

COc1ccnc(C[S+]([O-])c2nc3cc(C(C)=O)c(C)cc3[nH]2)c1 (stereo not shown) [Example 9]
inhibition in vivo at 2 µmol/kg: 95%

COc1ccnc(C[S+]([O-])c2nc3c(C)cc(C)cc3[nH]2)c1 (stereo not shown) [Example 10]
inhibition in vivo at 2 µmol/kg: 40%

COc1c(C)cnc(C[S+]([O-])c2nc3cc(C(C)=O)c(C)cc3[nH]2)c1C (stereo not shown) [Example 11]
inhibition in vivo at 0.5 µmol/kg: 70%

COC(=O)c1cc2nc([S+]([O-])Cc3ncc(C)cc3C)[nH]c2cc1C (stereo not shown) [Example 12]
inhibition in vivo at 2 µmol/kg: 70%

COC(=O)c1cc2nc([S+]([O-])Cc3ncc(C)c(C)c3C)[nH]c2cc1C (stereo not shown) [Example 13]
inhibition in vivo at 4 µmol/kg: 80%

COC(=O)c1cc2nc([S+]([O-])Cc3cc(OC)ccn3)[nH]c2cc1C (stereo not shown) [Example 14]
inhibition in vivo at 2 µmol/kg: 100%

CCOc1ccnc(C[S+]([O-])c2nc3cc(C(=O)OC)c(C)cc3[nH]2)c1 (stereo not shown) [Example 15]
inhibition in vivo at 4 µmol/kg: 75%

COC(=O)c1cc2nc([S+]([O-])Cc3nccc(OC)c3C)[nH]c2cc1C (stereo not shown) [Example 16]
inhibition in vivo at 0.5 µmol/kg: 65%

COC(=O)c1cc2nc([S+]([O-])Cc3ncc(C)c(OC)c3C)[nH]c2cc1C (stereo not shown) [Example 17]
inhibition in vivo at 0.5 µmol/kg: 90%

COC(=O)c1ccc2[nH]c([S+]([O-])Cc3ncc(C)cc3C)nc2c1 (stereo not shown) [Example 19]
inhibition in vivo at 2 µmol/kg: 60%

COC(=O)c1ccc2[nH]c([S+]([O-])Cc3ncc(C)c(OC)c3C)nc2c1 (stereo not shown) [Example 20]
inhibition in vivo at 0.5 µmol/kg: 65%

COc1c(C)cnc(C[S+]([O-])c2nc3cc(C(C)=O)ccc3[nH]2)c1C (stereo not shown) [Example 21]
inhibition in vivo at 0.5 µmol/kg: 60%

COc1ccc2[nH]c([S+]([O-])Cc3ncc(C)c(OC)c3C)nc2c1 (stereo not shown) [Example 23]
inhibition in vivo at 0.5 µmol/kg: 65%

COc1c(C)cnc(C[S+]([O-])c2nc3cc(C)ccc3[nH]2)c1C (stereo not shown) [Example 24]
inhibition in vivo at 0.5 µmol/kg: 50%

COc1c(C)cnc(C[S+]([O-])c2nc3ccccc3[nH]2)c1C (stereo not shown) [Example 25]
inhibition in vivo at 0.5 µmol/kg: 60%

COc1c(C)cnc(C[S+]([O-])c2nc3cc(Cl)ccc3[nH]2)c1C (stereo not shown) [Example 26]
inhibition in vivo at 0.5 µmol/kg: 25%

COCCOc1ccnc(C[S+]([O-])c2nc3cc(C)ccc3[nH]2)c1 (stereo not shown) [Example 27]
inhibition in vivo at 0.5 µmol/kg: 30%

CCOC(=O)c1ccc2[nH]c([S+]([O-])Cc3ncc(C)c(OC)c3C)nc2c1 (stereo not shown) [Example 28]
inhibition in vivo at 0.5 µmol/kg: 50%

COC(=O)c1ccc2[nH]c([S+]([O-])C(C)c3ncc(C)cc3C)nc2c1 (stereo not shown) [Example 29]
inhibition in vivo at 0.5 µmol/kg: 40%
